We go through 46 molecules from the Biogen ADME set (Fang et al. 2023).

The conditions of this series: for aqueous solubility: pH 6.8.

SMILES strings stand for the structures. ≈ marks a conversion by molar mass, not a printed value.

Turning to `COc1cccc(-c2cccc(N)n2)c1F`, the MDR1-MDCK efflux ratio is 0.764; the intrinsic clearance, human liver microsomes was 84.1 mL/min/kg; the intrinsic clearance, rat liver microsomes is 258 mL/min/kg; the aqueous solubility turned out to be 18.2 µg/mL (≈ 83.4 µM).

Regarding `COc1cc(Br)c(Nc2nc(-c3c(C)nc4ncccn34)cs2)c(Br)c1`, the MDR1-MDCK efflux ratio was found to be 2.59; the intrinsic clearance, human liver microsomes came to 75.9 mL/min/kg; the intrinsic clearance, rat liver microsomes stood at 519 mL/min/kg; the aqueous solubility turned out to be 29.1 µg/mL (≈ 58.7 µM).

For the molecule `O=C(CCC1CCOCC1)Nc1ccc(C(=O)O)cc1`, the intrinsic clearance, human liver microsomes was ≤ 4.74 mL/min/kg and the intrinsic clearance, rat liver microsomes was ≤ 10.7 mL/min/kg.

For `CN(C)c1nccc(N2CCN(CCCCCF)CC2)n1`, the MDR1-MDCK efflux ratio was 0.419; the intrinsic clearance, human liver microsomes stood at 32.4 mL/min/kg; the intrinsic clearance, rat liver microsomes turned out to be 1440 mL/min/kg.

Regarding `CN(Cc1cccc(Cl)c1Cl)Cc1cc(=O)n(C)c(=O)n1C`, the MDR1-MDCK efflux ratio was 0.829; the intrinsic clearance, human liver microsomes amounted to 191 mL/min/kg; the intrinsic clearance, rat liver microsomes was 2760 mL/min/kg.

With `N#Cc1cccc(CN2CCC=C(CNC(=O)c3cccs3)C2)c1`, the MDR1-MDCK efflux ratio stood at 2.25; the intrinsic clearance, human liver microsomes turned out to be 56.7 mL/min/kg; the intrinsic clearance, rat liver microsomes was 442 mL/min/kg; the aqueous solubility is 52.2 µg/mL (≈ 155 µM).

For the molecule `Nc1ccnc2ccc(Oc3ccccc3)cc12`, the MDR1-MDCK efflux ratio was 0.486; the intrinsic clearance, human liver microsomes amounted to 13.5 mL/min/kg; the intrinsic clearance, rat liver microsomes is 2330 mL/min/kg.

`CS(=O)(=O)N1CCN(Cc2cc3c(cc2O)OCO3)CC1` gave an intrinsic clearance, human liver microsomes of 28.6 mL/min/kg and an intrinsic clearance, rat liver microsomes of 278 mL/min/kg.

In the case of `Cc1cccc(NCCN2C(=O)CCC2=O)n1`, the MDR1-MDCK efflux ratio is 0.667; the intrinsic clearance, human liver microsomes is ≤ 4.74 mL/min/kg; the intrinsic clearance, rat liver microsomes was 49.9 mL/min/kg.

Turning to `CCOc1cc(CN2CCc3c(N)nc(N4CCCC4)nc3C2)ccc1OC`, the MDR1-MDCK efflux ratio was found to be 16.6; the intrinsic clearance, human liver microsomes is 26.6 mL/min/kg; the intrinsic clearance, rat liver microsomes is 280 mL/min/kg.

Take `Cc1noc(C(C)C)c1C(=O)N1CC(C)OC(c2ccccc2)C1` (centres undefined): the MDR1-MDCK efflux ratio amounted to 0.943; the fraction unbound, human plasma stood at 0.152; the fraction unbound, rat plasma stood at 0.129; the intrinsic clearance, human liver microsomes is 71.2 mL/min/kg. The intrinsic clearance, rat liver microsomes turned out to be 1610 mL/min/kg.

For `C=CC(=O)Nc1cccc(Sc2nc(Nc3ccc(N4CCN(C)CC4)cc3)ncc2Cl)c1`, the aqueous solubility is 0.4 µg/mL (≈ 0.832 µM).

Turning to `CCNC(=O)N1CCc2nc3ccc(F)cn3c(=O)c2C1`, the MDR1-MDCK efflux ratio worked out at 10.3; the intrinsic clearance, human liver microsomes was ≤ 4.74 mL/min/kg; the intrinsic clearance, rat liver microsomes is ≤ 10.7 mL/min/kg; the aqueous solubility turned out to be 57.7 µg/mL (≈ 199 µM).

For `O=C(O)c1ccccc1COc1cccc2cccnc12`, the MDR1-MDCK efflux ratio was found to be 1.76; the intrinsic clearance, human liver microsomes was ≤ 4.74 mL/min/kg; the intrinsic clearance, rat liver microsomes worked out at 12.4 mL/min/kg.

`CC(C)(C)C(=O)Nc1nnc(Cc2ccccc2)s1`: the MDR1-MDCK efflux ratio was determined as 1.19; the intrinsic clearance, human liver microsomes was ≤ 4.74 mL/min/kg; the intrinsic clearance, rat liver microsomes is 658 mL/min/kg; the aqueous solubility was 35.2 µg/mL (≈ 128 µM).

Turning to `CCc1c(N)cnn1-c1ccccc1C`, the MDR1-MDCK efflux ratio amounted to 0.677; the intrinsic clearance, human liver microsomes is 8.11 mL/min/kg; the intrinsic clearance, rat liver microsomes is 165 mL/min/kg; the aqueous solubility turned out to be 37.1 µg/mL (≈ 185 µM).

Turning to `O=C(c1ccc(O)nc1)N1CCN(c2ncccn2)CC1`, the MDR1-MDCK efflux ratio came out at 7; the intrinsic clearance, human liver microsomes was ≤ 4.74 mL/min/kg; the intrinsic clearance, rat liver microsomes is ≤ 10.7 mL/min/kg; the aqueous solubility is 43.1 µg/mL (≈ 151 µM).

As for `CNC(=O)c1ccc(Nc2ncc(C(F)(F)F)c(NCc3nccnc3N(C)S(C)(=O)=O)n2)cc1`, the intrinsic clearance, human liver microsomes is 28.1 mL/min/kg; the intrinsic clearance, rat liver microsomes was 141 mL/min/kg; the aqueous solubility was 1.9 µg/mL (≈ 3.72 µM).

As for `O=C(Nc1ccc(S(=O)(=O)Nc2ccnn2-c2ccccc2)cc1)c1ccco1`, the MDR1-MDCK efflux ratio came to 48.8; the intrinsic clearance, human liver microsomes is 8.1 mL/min/kg; the intrinsic clearance, rat liver microsomes is 102 mL/min/kg; the aqueous solubility came to 63.4 µg/mL (≈ 155 µM).

On to `c1ccc(OCc2cc(CC3(NCc4cnc5ccccc5c4)COC3)no2)cc1`, for which the MDR1-MDCK efflux ratio was determined as 1.29; the intrinsic clearance, human liver microsomes was 153 mL/min/kg; the intrinsic clearance, rat liver microsomes was determined as 1270 mL/min/kg; the aqueous solubility was determined as 13.1 µg/mL (≈ 32.6 µM).

`CN(Cc1nc2ccccc2n1C)c1ccnc(-c2ccccc2)n1`: the intrinsic clearance, human liver microsomes was 105 mL/min/kg and the intrinsic clearance, rat liver microsomes was 1740 mL/min/kg.

In the case of `N#Cc1ccccc1NC(=O)CCc1ccccc1`, the MDR1-MDCK efflux ratio came to 0.552; the intrinsic clearance, human liver microsomes came out at 16 mL/min/kg; the intrinsic clearance, rat liver microsomes came to 456 mL/min/kg.

For `Cc1sc2nc(CN3CCOCC3)nc(N3CCN(c4ccncc4)CC3)c2c1C`, the MDR1-MDCK efflux ratio stood at 28.9; the intrinsic clearance, human liver microsomes worked out at 18.3 mL/min/kg; the intrinsic clearance, rat liver microsomes stood at 281 mL/min/kg; the aqueous solubility stood at 76.6 µg/mL (≈ 180 µM).

With `CN(C)c1nc(CN2CCOCC2)nc2scc(-c3cccs3)c12`, the MDR1-MDCK efflux ratio came to 1.03; the intrinsic clearance, human liver microsomes is 165 mL/min/kg; the intrinsic clearance, rat liver microsomes was found to be 1790 mL/min/kg; the aqueous solubility came to 57.3 µg/mL (≈ 159 µM).

As to `Cc1ccc2nc(C)c(C(=O)N3CCC(C(=O)Nc4ccncc4)CC3)cc2c1`, the MDR1-MDCK efflux ratio was determined as 36.9; the intrinsic clearance, human liver microsomes was 21.1 mL/min/kg; the intrinsic clearance, rat liver microsomes came out at 70 mL/min/kg; the aqueous solubility worked out at 52.5 µg/mL (≈ 135 µM).

Consider `COCC(=O)N1CC[C@H](c2nnc(-c3ccc(C)cc3)o2)C1`, for which the MDR1-MDCK efflux ratio came out at 1.36; the intrinsic clearance, human liver microsomes is ≤ 4.74 mL/min/kg; the intrinsic clearance, rat liver microsomes was ≤ 10.7 mL/min/kg; the aqueous solubility turned out to be 52.7 µg/mL (≈ 175 µM).

On to `COc1ccc(Nc2ncnc3sccc23)c(OC)c1`, for which the MDR1-MDCK efflux ratio was determined as 0.572; the intrinsic clearance, human liver microsomes is 89.3 mL/min/kg; the intrinsic clearance, rat liver microsomes was 605 mL/min/kg; the aqueous solubility amounted to 40.1 µg/mL (≈ 140 µM).

Consider `CCCOc1ccn2c(C(C)=O)cc(-c3ccccc3S(C)(=O)=O)c2c1`, for which the MDR1-MDCK efflux ratio is 1.33; the intrinsic clearance, human liver microsomes was 56.1 mL/min/kg; the intrinsic clearance, rat liver microsomes is 565 mL/min/kg.

As for `Cc1cc(NCc2ccnc(N3CCCC3)c2)c2ccccc2n1`, the MDR1-MDCK efflux ratio came to 17; the intrinsic clearance, human liver microsomes was 23.8 mL/min/kg; the intrinsic clearance, rat liver microsomes stood at 5470 mL/min/kg; the aqueous solubility stood at 32.2 µg/mL (≈ 101 µM).

With `CCn1c(-c2nonc2N)nc2cnc(Oc3cccc(NC(=O)c4ccc(OCCN5CCOCC5)cc4)c3)cc21`, the MDR1-MDCK efflux ratio stood at 7.8; the fraction unbound, human plasma came out at 0.00355; the fraction unbound, rat plasma came to 0.00473; the intrinsic clearance, human liver microsomes was 101 mL/min/kg. This molecule also displayed an intrinsic clearance, rat liver microsomes of 232 mL/min/kg.

For `N#Cc1ccnc(Nc2ccc(F)cc2)c1`, the MDR1-MDCK efflux ratio turned out to be 0.609; the intrinsic clearance, human liver microsomes was 164 mL/min/kg; the intrinsic clearance, rat liver microsomes stood at 185 mL/min/kg.

In the case of `CCOc1ccc(Oc2ccc(OCc3cc(F)ccc3F)cc2)c(N)c1`, the intrinsic clearance, human liver microsomes turned out to be 8.79 mL/min/kg and the intrinsic clearance, rat liver microsomes worked out at 104 mL/min/kg.

`CC(C)Oc1ccc(CCNC(=O)N2CCC[C@H]2C(=O)N2CCCCC2)cc1`: the MDR1-MDCK efflux ratio was found to be 50.9; the intrinsic clearance, human liver microsomes was 19.7 mL/min/kg; the intrinsic clearance, rat liver microsomes was 492 mL/min/kg.

`Cc1nnc(-c2ccccc2NCc2ccsc2)o1`: the MDR1-MDCK efflux ratio amounted to 0.204 and the aqueous solubility worked out at 0.93 µg/mL (≈ 3.43 µM).

Turning to `CN(CC#N)C(=O)c1cccc(CN2CCCC2)c1`, the MDR1-MDCK efflux ratio is 2.59; the intrinsic clearance, human liver microsomes is ≤ 4.74 mL/min/kg; the intrinsic clearance, rat liver microsomes stood at 322 mL/min/kg; the aqueous solubility was 34.9 µg/mL (≈ 136 µM).

With `COc1cccc(C)c1C(=O)N(C)Cc1ncc[nH]1`, the MDR1-MDCK efflux ratio was 6.32; the intrinsic clearance, human liver microsomes is ≤ 4.74 mL/min/kg; the intrinsic clearance, rat liver microsomes was determined as 425 mL/min/kg.

Regarding `O=C(Cc1ccc(Cl)cc1)NCc1ccncc1`, the MDR1-MDCK efflux ratio was determined as 0.772; the intrinsic clearance, human liver microsomes is ≤ 4.74 mL/min/kg; the intrinsic clearance, rat liver microsomes came to 35.9 mL/min/kg; the aqueous solubility turned out to be 51.6 µg/mL (≈ 198 µM).

Regarding `Cc1ccc(-n2c(S)nnc2-c2ccc(O)cc2)c(C)c1`, the MDR1-MDCK efflux ratio is 34.6; the intrinsic clearance, human liver microsomes worked out at 10.1 mL/min/kg; the intrinsic clearance, rat liver microsomes came out at 129 mL/min/kg; the aqueous solubility was 28.9 µg/mL (≈ 97.3 µM).

Turning to `Cc1ccc(C)c(OCCC(=O)N2CCC(n3c(=O)[nH]c4ccccc43)CC2)c1`, the intrinsic clearance, human liver microsomes is 421 mL/min/kg and the intrinsic clearance, rat liver microsomes was found to be 6460 mL/min/kg.

Regarding `Cc1oc(C)c(C(=O)N2CCNC(=O)C2)c1Br`, the MDR1-MDCK efflux ratio came to 5.92; the intrinsic clearance, human liver microsomes was ≤ 4.74 mL/min/kg; the intrinsic clearance, rat liver microsomes was ≤ 10.7 mL/min/kg; the aqueous solubility amounted to 72.2 µg/mL (≈ 240 µM).

With `[2H]C([2H])([2H])NC(=O)c1nnc(NC(=O)C2CC2)cc1Nc1cccc(-c2ncn(C)n2)c1OC`, the MDR1-MDCK efflux ratio stood at 114; the fraction unbound, human plasma stood at 0.154; the fraction unbound, rat plasma is 0.172; the intrinsic clearance, human liver microsomes is ≤ 4.74 mL/min/kg. The intrinsic clearance, rat liver microsomes turned out to be 26.1 mL/min/kg and the aqueous solubility came to 17 µg/mL (≈ 39.9 µM).

`N#CN1CCC[C@H](n2nc(-c3ccc(Oc4ccc(F)cc4F)cc3)c(C(N)=O)c2N)C1`: the MDR1-MDCK efflux ratio is 33; the intrinsic clearance, human liver microsomes is ≤ 4.74 mL/min/kg; the intrinsic clearance, rat liver microsomes came to 68.2 mL/min/kg; the aqueous solubility is 35.9 µg/mL (≈ 81.9 µM).

For the molecule `CC(C)(CNc1cnn(CCO)c1)c1ccccc1`, the intrinsic clearance, human liver microsomes was found to be 8.4 mL/min/kg and the intrinsic clearance, rat liver microsomes came out at 324 mL/min/kg.

In turn, `c1ccc(-c2ccc(Cn3ccnc3-c3cc4n(n3)CCCNC4)cc2)cc1` came in with an intrinsic clearance, human liver microsomes of 14.7 mL/min/kg; an intrinsic clearance, rat liver microsomes of 399 mL/min/kg; an aqueous solubility of 4.59 µg/mL (≈ 12.4 µM).

As for `COc1ccc(CC(=O)Nc2ccc(F)nc2)cc1`, the MDR1-MDCK efflux ratio was determined as 0.624; the intrinsic clearance, human liver microsomes stood at 16.5 mL/min/kg; the intrinsic clearance, rat liver microsomes turned out to be 76.5 mL/min/kg.

Regarding `Cn1ccnc1COc1ccc(CO)cc1`, the aqueous solubility came out at 57.4 µg/mL (≈ 263 µM).

For orientation: aqueous solubility means the dissolved amount per volume that the medium holds.
